According to patent US20040191297A1, “Carotenoid formulation” (priority 1997, published 2004):

Experiments:
[1] = Fecal lycopene analysis (24 hour fecal pellets); type: in vivo, rat; conditions: for Fecal lycopene: male rat, 744 μg/g in diet
Protocol: Prior to termination, 3 animals from each group were placed in metabolic cages and 24-hour urine and fecal collections made for subsequent lycopene assay. Blood was collected by heart puncture under anesthesia for lycopene assay and all animals were sacrificed by CO2 anesthesia. Blood and feces were stored at −20° C. At necropsy, all major organ systems were grossly inspected. Any unusual appearing tissues were placed in formalin and saved for later histological examination.
Extraction of lycopene from diet was as follows: A sample of diet containing lycopene was suspended in the injection solvent (Table 4) and homogenized in a polytron homogenizer. Echinenone was added as an internal standard and the mixture centrifuged at 3000 rpm at 4° C. for 15 minutes. The supernatant was decanted and saved and the extraction repeated. The pooled extracts were then dried under N2 gas at 60° C. and the residue dissolved in 0.5 ml injection solvent and then subjected to HPLC analysis. The same method, with minor variations, was used for feces and for lung tissue. The efficiency of lycopene extraction from the diet is shown in Table 6 A&B. At any concentration tested the efficiency ranged from 75% at the highest concentration to 100% for the lowest concentration of lycopene.
The possibility that some lycopene decomposed upon storage prior to extraction must also be considered. […] This, no doubt, is due to the presence of water in the fecal pellet and to the geometry of the pellet. Once freeze-dried, the fecal pellet can easily be powdered, permitting easier access of the solvent to the fecal matrix.

[2] = Lycopene content of rat mammary gland; type: in vivo, Fischer 344 rats; conditions: female
Excerpt: (§1) homogenized. […] This hexane extraction procedure was repeated 5-7 times.

glutathione = test: Total glutathione assays of blood, liver and kidney; type: in vivo, Fischer 344 rats
Excerpt: The rationale for measuring glutathione is that the reduced form of the tripeptide thiol, glutathione (Glu-Cys-Gly), participates directly in several key intracellular reactions, including protection against free radical damage. In contrast to carotenoids, which reside in the lipid phase, glutathione is found in the aqueous phase of the cell and there is evidence that lipid and aqueous phase anti-oxidants may interact with one another in such a manner that high levels of one may “spare” or limit the deletion of the other. Total (reduced and oxidized) glutathione assays of blood, liver and kidney (Tables 20-22) were conducted.
The determination of glutathione was by HPLC with dual electrochemical detection (see Kleinman, W. A. & Richie, J. P., J. Chromatogr B 672:73-80, 1995). only 1 case, at the highest lycopene level, was there a significant increase in glutathione levels and this occurred only in the liver.

[3] = Lycopene content of rat prostate gland; type: in vivo, Fischer 344 rats; conditions: male
Excerpt: as §1

α-tocopherol [4] = test: Liver vitamin E assay; type: in vivo, Fischer 344 rats
α-tocopherol [5] = test: Liver vitamin E assay; type: in vivo, Fischer 344 rats; conditions: for Liver α-tocopherol: female
Excerpt: The effect of the tomato carotenoid supplement on the absorption and storage of two important fat soluble vitamins, namely, retinol and α-tocopherol, was investigated. Using established HPLC methods, a strong liner dose-response relationship was found between the lycopene content of the liver and both retinol and a-tocopherol concentration in female R-344 rats (Table 23).

in vivo = conditions: Fischer 344, rat
Protocol: Breast, liver and prostate tissue contain lipids which interfere with the assay. Consequently, a saponification step was required prior to organic extraction. Tissue was homogenized in 20 ml methanol to which echinenone was added as internal standard. For breast tissue, which comprise of 85% adipocytes, 8.0 ml 50% NaOH and 4.0 ml 25% sodium ascorbate was added and the mixture was homogenized. For prostate and liver tissue, which contain less lipid, 4.0 ml and 50% NaOH. and 2.0 ml sodium ascorbate were added and the mixture was
homogenized. Saponification was carried out in 50 ml tubes saturated with N2 gas overnight in a temperature controlled shaker bath at 30° C. Following saponification, 10 ml hexane was add d to each tube and vortexed for 1 minute. The mixture was then centrifuged at 2000 rpm for 10 min at 4° C. and the hexane layer was decanted and saved. This hexane extraction procedure was repeated 5-7 times. The pooled hexane extract was then dried under N2 gas at 60° C., dissolved in injection solvent and analyzed by HPLC. Lung and colon tissue were processed in an identical manner with the exception that the saponification step was omitted.

[6] = lyophilization + organic extraction

## CC(C)=CCC/C(C)=C/C=C/C(C)=C/C=C/C(C)=C/C=C/C=C(C)/C=C/C=C(C)/C=C/C=C(\C)CCC=C(C)C [Lycopene]
[1]; [6]
  24 hr fecal lycopene: 5,406 μg
  Fecal lycopene: 3,754 μg/g
[1]; organic extraction
  Fecal lycopene: 2,992 μg/g
  24 hr fecal lycopene: 4,309 μg
  % Efficiency (fecal output/input): 44%
[2]; Group 1 (1280 mg/kg diet)
  Lycopene content of mammary gland, Median: 235 ng/g
  Lycopene content of mammary gland, Range: 232 to 460 ng/g
  Lycopene content of mammary gland, mean ± SD: 309 ± 131 ng/g
[2]; Group 2 (512 mg/kg diet)
  Lycopene content of mammary gland, Median: 197 ng/g
  Lycopene content of mammary gland, Range: 172 to 231 ng/g
  Lycopene content of mammary gland, mean ± SD: 200 ± 030 ng/g
[2]; Group 3 (256 mg/kg diet)
  Lycopene content of mammary gland, Median: 220 ng/g
  Lycopene content of mammary gland, Range: 139 to 282 ng/g
  Lycopene content of mammary gland, mean ± SD: 215 ± 062 ng/g
[2]; Group 4 (128 mg/kg diet)
  Lycopene content of mammary gland, Median: 217 ng/g
  Lycopene content of mammary gland, Range: 181 to 288 ng/g
  Lycopene content of mammary gland, mean ± SD: 229 ± 054 ng/g
[2]; Group 5 (51 mg/kg diet)
  Lycopene content of mammary gland, Median: 143 ng/g
  Lycopene content of mammary gland, Range: 139 to 239 ng/g
  Lycopene content of mammary gland, mean ± SD: 174 ± 057 ng/g
glutathione; female, lycopene 51 ppm
  Kidney glutathione: 0.900 ± 0.101^ μmol/g
  Liver glutathione: 6.01 ± 0.309 µmol/g
  Whole blood glutathione: 0.832 ± 0.158^+ μmol/g
glutathione; female, lycopene 128 ppm
  Kidney glutathione: 0.950 ± 0.0758^ μmol/g
  Liver glutathione: 6.54 ± 1.09^+ μmol/g
  Whole blood glutathione: 0.890 ± 0.202 µmol/g
glutathione; female, lycopene 256 ppm
  Kidney glutathione: 1.030 ± 0.414^+ μmol/g
  Liver glutathione: 4.87 ± 1.14 µmol/g
  Whole blood glutathione: 0.848 ± 0.0988 µmol/g
glutathione; female, lycopene 512 ppm
  Kidney glutathione: 1.090 ± 0.163^+ μmol/g
  Liver glutathione: 5.88 ± 0.492 µmol/g
  Whole blood glutathione: 0.930 ± 0.123 µmol/g
glutathione; female, lycopene 1280 ppm
  Kidney glutathione: 0.089 ± 0.045^+ μmol/g
  Liver glutathione: 7.38 ± 0.705^+ μmol/g
  Whole blood glutathione: 1.080 ± 0.104 µmol/g
glutathione; liver, kidney or whole blood
  dose-related changes in glutathione: No dose-related changes
glutathione; male, lycopene 51 ppm
  Kidney glutathione: 0.688 ± 0.316 µmol/g
  Liver glutathione: 6.77 ± 1.53 µmol/g
  Whole blood glutathione: 1.030 ± 0.0387 µmol/g
glutathione; male, lycopene 128 ppm
  Kidney glutathione: 0.686 ± 0.170 µmol/g
  Liver glutathione: 5.38 ± 0.363 µmol/g
  Whole blood glutathione: 0.920 ± 0.169 µmol/g
glutathione; male, lycopene 256 ppm
  Kidney glutathione: 0.624 ± 0.104 µmol/g
  Liver glutathione: 4.59 ± 1.37 µmol/g
  Whole blood glutathione: 0.910 ± 0.106 µmol/g
glutathione; male, lycopene 512 ppm
  Kidney glutathione: 0.854 ± 0.055^+ μmol/g
  Whole blood glutathione: 0.990 ± 0.141 µmol/g
glutathione; male, lycopene 1280 ppm
  Kidney glutathione: 0.828 ± 0.128^+ μmol/g
  Liver glutathione: 7.16 ± 1.95^+ μmol/g
  Whole blood glutathione: 0.948 ± 0.294 µmol/g
[3]; Group 1 (1280 mg/kg diet)
  Lycopene content of prostate gland, Median: 99 ng/g
  Lycopene content of prostate gland, Range: 79 to 112 ng/g
  Lycopene content of prostate gland, mean ± SD: 97 ± 17 ng/g
[3]; Group 2 (512 mg/kg diet)
  Lycopene content of prostate gland, Median: 83 ng/g
  Lycopene content of prostate gland, Range: 54 to 147 ng/g
  Lycopene content of prostate gland, mean ± SD: 95 ± 48 ng/g
[3]; Group 3 (256 mg/kg diet)
  Lycopene content of prostate gland, Median: 35 ng/g
  Lycopene content of prostate gland, Range: 23 to 93 ng/g
  Lycopene content of prostate gland, mean ± SD: 50 ± 37 ng/g
[3]; Group 4 (128 mg/kg diet)
  Lycopene content of prostate gland, Median: 52 ng/g
  Lycopene content of prostate gland, Range: 26 to 77 ng/g
  Lycopene content of prostate gland, mean ± SD: 52 ± 26 ng/g
[3]; Group 5 (51 mg/kg diet)
  Lycopene content of prostate gland, Median: 47 ng/g
  Lycopene content of prostate gland, Range: 32 to 63 ng/g
  Lycopene content of prostate gland, mean ± SD: 47 ± 16 ng/g
α-tocopherol [4]; female, Group 2, lycopene 512 mg/kg diet
  Liver α-tocopherol: 38 μg/gm
α-tocopherol [4]; male, Group 7, lycopene 1280 mg/kg diet
  Liver α-tocopherol: 28 μg/gm
α-tocopherol [4]; male, Group 8, lycopene 512 mg/kg diet
  Liver α-tocopherol: 8 μg/gm
α-tocopherol [4]; male, Group 9, lycopene 256 mg/kg diet
  Liver α-tocopherol: 23 μg/gm
α-tocopherol [4]; male, Group 11, lycopene 51 mg/kg diet
  Liver α-tocopherol: 14 μg/gm
α-tocopherol [5]; female rats
  difference in liver α-tocopherol between controls and the highest lycopene dose: 4 fold
α-tocopherol [5]; Group 1, lycopene 1280 mg/kg diet
  Liver α-tocopherol: 47 μg/gm
α-tocopherol [5]; Group 3, lycopene 256 mg/kg diet
  Liver α-tocopherol: 39 μg/gm
α-tocopherol [5]; Group 4, lycopene 128 mg/kg diet
  Liver α-tocopherol: 46 μg/gm
α-tocopherol [5]; Group 5, lycopene 51 mg/kg diet
  Liver α-tocopherol: 32 μg/gm
In vivo
  Kp: 100 to 1000
